Source: US20250268982A1, “COMPOSITIONS AND METHODS FOR TREATMENT AND/OR PROPHYLAXIS OF PROTEINOPATHIES” (REGAIN THERAPEUTICS SWEDEN AB, priority 2021, published 2025)

Tests used:
[1] = Thioflavin-T kinetics assay of aggregation propensity; format: physicochemical; conditions: 500 μg/ml peptide in normal saline, 12-24 h; FIGS. 6A, 6B
Description: THT method. ThT (Sigma-Aldrich) was prepared at 4 mM in MQ water. 50 μL of 500 μg/ml peptide (in normal saline) were incubated with 250 μL of 2.4 mM ThT solution (in water). ThT fluorescence was measured at 440 nm excitation and 480 nm emission in a black, clear-bottom 96-well plates (Corning, USA) at 10-15 min intervals (from bottom with periodic shaking) over 12-24 h on SpectraMax i3 microplate reader (Molecular Devices, USA). Curves were fitted using GraphPad Prism software.

[2] = system: ERK1/2 phosphorylation; test: ERK1/2 phosphorylation ELISA in SH-SY5Y cells; format: cell-based; conditions: 30 pM peptide, 5 minutes, FIG. 16
Description: Phosphorylation of ERK is important for cell proliferation, neurogenesis and synaptic plasticity, and is downstream of calcium influx through the α7 receptor. To obtain the data shown in FIG. 16, SH-SY5Y cells were treated with 30 pM peptide for 5 minutes, then lysed and ERK phosphorylation quantified via a commercial ELISA kit.

[3] = system: 5XFAD mice; test: Nest building behavioural test in 5XFAD mice; format: in vivo, mouse; conditions: peptide i.v., FIGS. 4A-4C
Description: Female wild type and 5xFAD transgenic mice (Jackson laboratories) were used for the mouse behavioural experiment. Mice were individually housed in controlled humidity, temperature and light conditions, and had ad libitum access to food and water. Randomization to treatment groups was carried out by using GraphPad QuickCalcs (GraphPad Software, San Diego, CA, USA), and all data analysis was performed blinded to the experimental groups. […] Every effort was made to minimize the harm and suffering of the animals. The mice were treated with the vehicle or peptide preparations once a week i.v. starting at the age of 1 month until 3 months of age. Behavioral testing: the 5xFAD mice have deficits in nest building test starting at 3 months of age. Briefly, the soft bedding material and plastic shelter tube are moved to the one end of the cage and soft tissue paper (17 cm×17 cm) is placed in the other end of the cage. After 24 hours, a picture of the cage is taken, and the points given according to the set scale. 0 points are given if tissue paper remains untouched, 5 points are given when animal incorporates tissue into nest.

[4] = system: 5XFAD mice; test: Plaque load by immunohistochemistry in brains of 5XFAD mice; format: in vivo, mouse; conditions: 5XFAD mice treated for five weeks
Description: Female wild type and 5xFAD transgenic mice (Jackson laboratories) were used for the mouse behavioural experiment. Mice were individually housed in controlled humidity, temperature and light conditions, and had ad libitum access to food and water. Randomization to treatment groups was carried out by using GraphPad QuickCalcs (GraphPad Software, San Diego, CA, USA), and all data analysis was performed blinded to the experimental groups. All the animal experiments followed the Council of Europe Legislation and Regulation for Animal Protection and are approved by the National Animal Experiment Board of Finland. Every effort was made to minimize the harm and suffering of the animals. […]
Immunohistochemistry: The brains were post-fixed in 4% paraformaldehyde (PFA, Sigma-Aldrich, St. Louis, MO, USA) for 20 hours, followed by cryoprotection in 30% sucrose for 48 hours. […] For quantification of the immunoreactivities, hippocampal areas were imaged using 4 or 10× magnification on an AX70 microscope (Olympus corporation, Tokyo, Japan) with an adjacent digital camera (Color View 12 or F-View, Soft imaging system, Muenster, Germany) running AnalySis software (Soft Imaging System). Quantification of the immunoreactivities was performed using ImagePro Plus software (Media Cybernetics Inc., Rockville, MD, USA) at a predefined range and presented as relative immunoreactive area. […]

Row | Substance | aggregation propensity (thioflavin-T fluorescence) [1] | downstream ERK1/2 phosphorylation [2] | phenotype restoration / rescue (behaviour) [3] | plaque load in the cortex versus vehicle treated animals ([4]; FIG. 5A) | plaque accumulation in the hippocampi versus vehicle treated animals ([4]; FIG. 5B) | phenotype restoration / rescue (behaviour) ([3]; listed as RT3)
1 | SEQ ID NO:88: Aβ42 analogue having a proline (P) substitution in place of methionine (M) at position 35 (M35P) | lower aggregation propensity than the peptide having SEQ ID NO:3 | induces downstream ERK1/2 phosphorylation | phenotype rescue |  |  | 
2 | SEQ ID NO:3: Aβ40: Aβ42 with deletion of residues 41 and 42 of the beta-sheet aggregation domain | lower aggregation propensity than wild type Aβ42 |  | phenotype restoration | reduced plaque load in the cortex | decreased level of plaque accumulation in the hippocampi | phenotype rescue
3 | SEQ ID NO: 192: Aβ42 analogue with pyrrolysine substituted for the naturally occurring methionine at position 35 | lower aggregation propensity than wild type Aβ42 |  |  |  |  | 
4 | SEQ ID NO: 190: Aβ42 analogue with N-methyl methionine substituted for the naturally occurring methionine at position 35 | lower aggregation propensity than wild type Aβ42 | induces downstream ERK1/2 phosphorylation |  |  |  | 
